The series is described as follows: Cytotoxicity in normal human epidermal melanocytes (trypan blue). The class given is cell-based. The conditions noted are these: 2 days culture, 0.5% trypan blue, concentration not given, read-out: cytotoxicity (judgement by cell death rate).

A value given as a limit tells only on which side of the number the result lay.

Consider `CCCCCCCCCCC(=O)OC[C@H]1O[C@@H](Oc2ccc(O)cc2)[C@H](O)[C@@H](O)[C@@H]1O` [比較化合物1, 6−O−ウンデカノイルアルブチン], for which the cytotoxicity at 48 h is > 50%.

(Values after patent JP2009132645A, “アシル化ハイドロキノン配糖体及びそれを含有する皮膚外用剤” (Pola Chemical Industries Inc, priority 2007, dated 2009).)
